Measurements from EPA's CvTdb concentration-time database.

Legend:
Rat [1] = assay: concentration in plasma after dosing; settings: dosed: Wyeth-14643, 5.0 mg/kg, oral, Male, Sprague-Dawley
Rat [2] = assay: concentration in plasma after dosing; settings: dosed: Wyeth-14643, 5.0 mg/kg, oral, Male, Sprague-Dawley; remark: listed apart in the source
Rat [3] = assay: concentration in plasma after dosing; settings: dosed: Wyeth-14643, 2.0 mg/kg, oral, Male, Sprague-Dawley
Rat [4] = assay: concentration in liver after dosing; settings: 10 min; dosed: Bis 2-Chloroethoxy Methane; 20 mg/kg; iv; Male; F344
Rat [5] = assay: concentration in thymus after dosing; settings: 5 h; dosed: Bis 2-Chloroethoxy Methane; 20 mg/kg; iv; Male; F344
Rat [6] = assay: concentration in plasma after dosing; settings: 1 h; dosed: Bis 2-Chloroethoxy Methane; 20 mg/kg; iv; Male; F344
Rat [7] = assay: concentration in thymus after dosing; settings: 10 min; dosed: Bis 2-Chloroethoxy Methane; 20 mg/kg; iv; Female; F344
Rat [8] = assay: concentration in thymus after dosing; settings: 40 min; dosed: Bis 2-Chloroethoxy Methane; 20 mg/kg; iv; Male; F344
Rat [9] = assay: concentration in heart after dosing; settings: 10 min; dosed: Bis 2-Chloroethoxy Methane; 20 mg/kg; iv; Female; F344
Rat [10] = assay: concentration in plasma after dosing; settings: dosed: Fluorotelomer alcohol 8+2, 40 mg/kg, iv, Female, Harlan Sprague-Dawley
Rat [11] = assay: concentration in brain after dosing; settings: 3 h; dosed: Fluorotelomer alcohol 8+2; 80 mg/kg; oral; Female; Harlan Sprague Dawley
Rat [12] = assay: concentration in brain after dosing; settings: 12 h; dosed: Fluorotelomer alcohol 8+2; 80 mg/kg; oral; Female; Harlan Sprague Dawley
Rat [13] = assay: concentration in liver after dosing; settings: 3 h; dosed: Fluorotelomer alcohol 8+2; 24 mg/kg; oral; Male; Harlan Sprague Dawley
Rat [14] = assay: concentration in liver after dosing; settings: 3 h; dosed: Fluorotelomer alcohol 8+2; 80 mg/kg; oral; Female; Harlan Sprague Dawley
Rat [15] = assay: concentration in liver after dosing; settings: 1 h; dosed: Fluorotelomer alcohol 8+2; 80 mg/kg; oral; Female; Harlan Sprague Dawley
Rat [16] = assay: concentration in plasma after dosing; settings: 1 h; dosed: Di-n-butyl phthalate; 100 mg/kg; oral; Male; Sprague-Dawley
Rat [17] = assay: concentration in kidney after dosing; settings: 1 h; dosed: Perfluorodecanoic acid; 10 mg/kg; oral; Female; Harlan Sprague Dawley
Rat [18] = assay: concentration in plasma after dosing; settings: dosed: Perfluorodecanoic acid, 2 mg/kg, iv, Male, F344
Rat [19] = assay: concentration in liver after dosing; settings: 1848 h; dosed: Perfluorodecanoic acid; 10 mg/kg; oral; Male; Harlan Sprague Dawley
Rat [20] = assay: concentration in plasma after dosing; settings: dosed: Perfluorodecanoic acid, 2 mg/kg, iv, Male, F344; remark: listed apart in the source
Rat [21] = assay: concentration in plasma after dosing; settings: dosed: Perfluorodecanoic acid, 2 mg/kg, iv, Male, F344; remark: listed apart in the source
Rat [22] = assay: concentration in liver after dosing; settings: 24 h; dosed: Perfluorodecanoic acid; 10 mg/kg; oral; Female; Harlan Sprague Dawley
Rat [23] = assay: concentration in plasma after dosing; settings: 30 h; dosed: Primidone; 130 mg/kg; oral; Female; F344
Rat [24] = assay: concentration in plasma after dosing; settings: 18 h; dosed: Primidone; 80 mg/kg; oral; Female; F344
Rat [25] = assay: concentration in plasma after dosing; settings: 18 h; dosed: Primidone; 30 mg/kg; oral; Female; F344
Rat [26] = assay: concentration in heart after dosing; settings: 10 min; dosed: Thiodiglycolic Acid; 20 mg/kg; iv; Male; F344
Rat [27] = assay: concentration in thymus after dosing; settings: 3 h; dosed: Thiodiglycolic Acid; 20 mg/kg; iv; Female; Harlan Sprague Dawley
Rat [28] = assay: concentration in liver after dosing; settings: 5.333 h; dosed: Thiodiglycolic Acid; 20 mg/kg; iv; Female; Harlan Sprague Dawley
Rat [29] = assay: concentration in heart after dosing; settings: 40 min; dosed: Thiodiglycolic Acid; 20 mg/kg; iv; Male; Harlan Sprague Dawley
Rat [30] = assay: concentration in heart after dosing; settings: 4 h; dosed: Thiodiglycolic Acid; 20 mg/kg; iv; Female; Harlan Sprague Dawley
Rat [31] = assay: concentration in liver after dosing; settings: 5.333 h; dosed: Thiodiglycolic Acid; 20 mg/kg; iv; Female; Harlan Sprague Dawley; remark: listed apart in the source
Rat [32] = assay: concentration in liver after dosing; settings: 8 h; dosed: Thiodiglycolic Acid; 20 mg/kg; iv; Female; Harlan Sprague Dawley
Rat [33] = assay: concentration in plasma after dosing; settings: 3 h; dosed: Thiodiglycolic Acid; 20 mg/kg; iv; Male; Harlan Sprague Dawley
Rat [34] = assay: concentration in thymus after dosing; settings: 5.333 h; dosed: Thiodiglycolic Acid; 20 mg/kg; iv; Female; Harlan Sprague Dawley
Rat [35] = assay: concentration in thymus after dosing; settings: 5.333 h; dosed: Thiodiglycolic Acid; 20 mg/kg; iv; Female; Harlan Sprague Dawley; remark: listed apart in the source
Rat [36] = assay: concentration in plasma after dosing; settings: 10 min; dosed: Thiodiglycolic Acid; 20 mg/kg; iv; Female; Harlan Sprague Dawley
Rat [37] = assay: concentration in plasma after dosing; settings: 20 min; dosed: dichloroacetic acid; 10 mg/kg; iv; Male; F344
Rat [38] = assay: concentration in plasma after dosing; settings: dosed: dichloroacetic acid, 40 mg/kg, oral, Female, Harlan Sprague Dawley
Rat [39] = assay: concentration in plasma after dosing; settings: dosed: dichloroacetic acid, 100 mg/kg, oral, Male, F344

Cc1cccc(Nc2cc(Cl)nc(SCC(=O)O)n2)c1C
concentration in plasma (Rat [1]; 2 h): 1920 ng/mL | concentration in plasma (Rat [1]; 6 h): 999 ng/mL | concentration in plasma (Rat [2]; 5 min): 1330 ng/mL | concentration in plasma (Rat [2]; 8 h): 155 ng/mL | concentration in plasma (Rat [3]; 1 h): 904 ng/mL | concentration in plasma (Rat [3]; 6 h): 200 ng/mL

ClCCOCOCCCl [Bis 2-Chloroethoxy Methane]
concentration in liver (Rat [4]): 5360 ng/g | concentration in thymus (Rat [5]): 78.9 ng/g | concentration in plasma (Rat [6]): 1940 ng/mL | concentration in thymus (Rat [7]): 44200 ng/g | concentration in thymus (Rat [8]): 4530 ng/g | concentration in heart (Rat [9]): 12100 ng/g

OCCC(F)(F)C(F)(F)C(F)(F)C(F)(F)C(F)(F)C(F)(F)C(F)(F)C(F)(F)F [Fluorotelomer alcohol 8+2]
concentration in plasma (Rat [10]; 0.75 h): 4710 ng/mL | concentration in plasma (Rat [10]; 12 h): 55.5 ng/mL | concentration in brain (Rat [11]): 9550 ng/g | concentration in brain (Rat [12]): 571 ng/g | concentration in liver (Rat [13]): 3080 ng/g | concentration in liver (Rat [14]): 8140 ng/g | concentration in liver (Rat [15]): 5950 ng/g

CCCCOC(=O)c1ccccc1C(=O)O [Mono-n-butyl phthalate]
concentration in plasma (Rat [16]): 14900 ng/mL

O=C(O)C(F)(F)C(F)(F)C(F)(F)C(F)(F)C(F)(F)C(F)(F)C(F)(F)C(F)(F)C(F)(F)F [Perfluorodecanoic acid]
concentration in kidney (Rat [17]): 22800 ng/g | concentration in plasma (Rat [18]; 1 h): 6010 ng/mL | concentration in plasma (Rat [18]; 528 h): 3220 ng/mL | concentration in plasma (Rat [18]; 3360 h): 204 ng/mL | concentration in liver (Rat [19]): 27600 ng/g | concentration in plasma (Rat [20]; 1 h): 5930 ng/mL | concentration in plasma (Rat [20]; 528 h): 2060 ng/mL | concentration in plasma (Rat [20]; 3360 h): 272 ng/mL | concentration in plasma (Rat [21]; 5 min): 7460 ng/mL | concentration in plasma (Rat [21]; 192 h): 3420 ng/mL | concentration in plasma (Rat [21]; 2520 h): 283 ng/mL | concentration in liver (Rat [22]): 139000 ng/g

CCC1(c2ccccc2)C(=O)NC(=O)NC1=O [Phenobarbital]
concentration in plasma (Rat [23]): 2120 ng/mL | concentration in plasma (Rat [24]): 1900 ng/mL | concentration in plasma (Rat [25]): 1060 ng/mL

O=C(O)CSCC(=O)O [Thiodiglycolic Acid]
concentration in heart (Rat [26]): 8210 ng/g | concentration in thymus (Rat [27]): 1030 ng/g | concentration in liver (Rat [28]): 2510 ng/g | concentration in heart (Rat [29]): 2320 ng/g | concentration in heart (Rat [30]): 620 ng/g | concentration in liver (Rat [31]): 47900 ng/g | concentration in liver (Rat [32]): 737 ng/g | concentration in plasma (Rat [33]): 696 ng/mL | concentration in thymus (Rat [34]): 372 ng/g | concentration in thymus (Rat [35]): 547 ng/g | concentration in plasma (Rat [36]): 40400 ng/mL

O=C(O)C(Cl)Cl [dichloroacetic acid]
concentration in plasma (Rat [37]): 2320 ng/mL | concentration in plasma (Rat [38]; 10 min): 3380 ng/mL | concentration in plasma (Rat [38]; 1.5 h): 3320 ng/mL | concentration in plasma (Rat [39]; 5 min): 7120 ng/mL | concentration in plasma (Rat [39]; 2 h): 41300 ng/mL
